In brackets after ≈: the same amount, converted by molar mass. Entries after “also recorded” stand apart in the source; their conditions may differ.
Tests used:
[1] = system: tetracycline sensitive and resistant Gram-positive and Gram-negative bacteria; assay: In vitro antibacterial evaluation, MIC by agar dilution (general, Tables I-V and IA); type: cell-based; conditions: summary of Tables I-V
E. faecalis ATCC 29212 = assay: MIC, agar dilution; type: cell-based; conditions: Enterococcus faecalis, ATCC29212
[2] = system: N. gonorrhoeae IL 611 (Sensitive); assay: MIC, agar dilution; type: cell-based; conditions: Neisseria gonorrhoeae
[3] = system: E. faecalis UBMS 90-7 (tetM); assay: MIC, agar dilution; type: cell-based; conditions: Enterococcus faecalis
[4] = system: S. haemolyticus AVAH 88-3; assay: MIC, agar dilution; type: cell-based; conditions: Staphylococcus haemolyticus, AVAH883
[5] = system: S. aureus UBMS 88-5 (tetM); assay: MIC, agar dilution; type: cell-based; conditions: S. aureus UBMS 88-5 (tetM)
Escherichia coli = assay: MIC against clinical isolates (Table V, A and O); type: cell-based; conditions: Escherichia coli
[6] = system: S. aureus IVES 1983 (meth. resistant); assay: MIC, agar dilution; type: cell-based; conditions: Staphylococcus aureus
[7] = system: S. aureus UBMS 88-7 (tetK); assay: MIC, agar dilution; type: cell-based; conditions: Staphylococcus aureus
Klebsiella pneumoniae = assay: MIC against clinical isolates (Table V, A and O); type: cell-based; conditions: Klebsiella pneumoniae
[8] = system: S. aureus IVES 2943 (meth. resistant); assay: MIC, agar dilution; type: cell-based; conditions: Staphylococcus aureus
[9] = system: E. coli UBMS 88-2 (Sensitive); assay: MIC, agar dilution; type: cell-based; conditions: Escherichia coli
[10] = system: E. coli UBMS 89-2 (Sensitive); assay: MIC, agar dilution; type: cell-based; conditions: Escherichia coli
E. coli UBMS 89-1 (tetM) = assay: MIC, agar dilution; type: cell-based; conditions: Escherichia coli
E. faecalis 12201 = assay: MIC, agar dilution; type: cell-based; conditions: Enterococcus faecalis, 12201
E. coli ATCC 25922 = assay: MIC, agar dilution; type: cell-based; conditions: Escherichia coli, ATCC25922
[11] = system: E. coli cell-free ribosomes, strain MRE 600 (TC Sensitive Host); assay: E. coli in vitro cell free protein translation system (Table VI); type: biochemical
[12] = system: S. aureus Smith (Sensitive); assay: MIC, agar dilution; type: cell-based; conditions: Staphylococcus aureus
[13] = system: S. aureus ATCC 29213 (Sensitive); assay: MIC, agar dilution; type: cell-based; conditions: Staphylococcus aureus, ATCC29213
E. coli UBMS 90-4 (tetM) = assay: MIC, agar dilution; type: cell-based; conditions: Escherichia coli
Haemophilus influenzae = assay: MIC against clinical isolates (Table V, A and O); type: cell-based; conditions: (18) tested
[14] = system: N. gonorrhoeae 6418 (tetM); assay: MIC, agar dilution; type: cell-based; conditions: Neisseria gonorrhoeae
Enterococcus faecalis = assay: MIC against clinical isolates (Table V, A and O); type: cell-based
Bacteroides spp. = assay: MIC against clinical isolates (Table V, A and O); type: cell-based
[15] = system: S. aureus UBMS 90-2 (tetM); assay: MIC, agar dilution; type: cell-based; conditions: Staphylococcus aureus, S. aureus UBMS 90-2 (tetM)
[16] = system: E. faecalis UBMS 90-6 (tetM); assay: MIC, agar dilution; type: cell-based; conditions: Enterococcus faecalis
S. aureus UBMS 90-1 = assay: In vivo antibacterial evaluation, acute lethal infection in mice; conditions: Staphylococcus aureus, UBMS901, sc, read-out: ED50, median effective dose protecting 50% of the infected mice; mice infected with S. aureus UBMS 90-1 (tetM), single subcutaneous dosing
Source text: (§1) In Vivo Antibacterial Evaluation (Table VII)

S. aureus UBMS 90-2 = assay: as above; conditions: Staphylococcus aureus, UBMS902, sc, read-out: ED50, median effective dose protecting 50% of the infected mice; mice infected with S. aureus UBMS 90-2 (tetM), single subcutaneous dosing
Source text: as §1

Proteus spp. indole+ = assay: MIC against clinical isolates (Table V, A and O); type: cell-based
Neisseria gonorrhoeae = assay: MIC against clinical isolates (Table V, A and O); type: cell-based
[17] = system: S. aureus UBMS 88-4 (Sensitive); assay: MIC, agar dilution; type: cell-based; conditions: S. aureus UBMS 88-4 (Sensitive)
E. coli UBMS 88-1 (tetB) = assay: MIC, agar dilution; type: cell-based; conditions: Escherichia coli, E. coli UBMS 88-1 (tetB)
[18] = system: E. coli cell-free ribosomes, strain MRE 600 (tetM) (Tet M Host); assay: E. coli in vitro cell free protein translation system (Table VI); type: biochemical
[19] = system: S. aureus UBMS 90-1 (tetM); assay: MIC, agar dilution; type: cell-based; conditions: S. aureus UBMS 90-1 (tetM)
Enterococcus faecium = assay: MIC against clinical isolates (Table V, A and O); type: cell-based
[20] = system: S. aureus UBMS 90-3 (Sensitive); assay: MIC, agar dilution; type: cell-based; conditions: Staphylococcus aureus, S. aureus UBMS 90-3 (Sensitive)

For CN(C)c1cc(NC=O)c(O)c2c1CC1CC3C(N(C)C)C(O)=C(C(N)=O)C(=O)C3(O)C(O)=C1C2=O (stereo not shown), the “antibacterial activity in vitro (in words)” value [1] was “good in vitro activity against tetracycline resistant strains containing the tetM resistance determinant; also recorded: superior to that of minocycline against other isolates”.
With CN(C)c1cc(NC=O)c(O)c2c1CC1CC3C(N(C)C)C(O)=C(C(N)=O)C(=O)C3(O)C(O)=C1C2=O (stereo not shown) [Compound A, 7-(Dimethylamino)-9-(formylamino)-6-demethyl-6-deoxytetracycline] the MIC (E. faecalis ATCC 29212) was at most 0.015 µg/mL, the MIC [2] was 0.06 µg/mL (≈ 0.12 µM) and the MIC [3] was 0.5 µg/mL (≈ 0.999 µM). The MIC [4] was 0.03 µg/mL (≈ 0.0599 µM), the MIC [5] was 0.03 µg/mL (≈ 0.0599 µM) and the MIC ([5]; Staphylococcus aureus) was 0.06 µg/mL (≈ 0.12 µM). For the same compound, the MIC50 (Escherichia coli) was 0.25 µg/mL (≈ 0.499 µM), the MIC90 (Escherichia coli) was over 32 µg/mL and the MIC [6] was 8 µg/mL (≈ 16 µM). For the same compound, the MIC [7] was 2 µg/mL (≈ 4 µM), the MIC50 (Klebsiella pneumoniae) was 0.5 µg/mL (≈ 0.999 µM) and the MIC90 (Klebsiella pneumoniae) was 0.5 µg/mL (≈ 0.999 µM). It also gave an MIC [8] of 4 µg/mL (≈ 7.99 µM), an MIC [9] of 0.12 µg/mL (≈ 0.24 µM) and an MIC [10] of 0.12 µg/mL (≈ 0.24 µM). The MIC (E. coli UBMS 89-1 (tetM)) was 0.12 µg/mL (≈ 0.24 µM), the MIC (E. faecalis 12201) was 0.12 µg/mL (≈ 0.24 µM) and the MIC (E. coli ATCC 25922) was 0.06 µg/mL (≈ 0.12 µM). The “IC50, concentration of antibiotic required to inhibit protein synthesis by 50% compared to a drug-free control” value [11] was under 0.3 µg/mL, the MIC [12] was at most 0.015 µg/mL and the MIC [13] was at most 0.015 µg/mL. The MIC (E. coli UBMS 90-4 (tetM)) was 1 µg/mL (≈ 2 µM), the MIC50 (Haemophilus influenzae) was 0.06 µg/mL (≈ 0.12 µM) and the MIC90 (Haemophilus influenzae) was 0.06 µg/mL (≈ 0.12 µM). For the same compound, the “MIC Range” value (Haemophilus influenzae) was under 0.008 to 0.06 µg/mL, the MIC [14] was 1 µg/mL (≈ 2 µM) and the MIC50 (Enterococcus faecalis; Enterococcus faecalis) was 0.12 µg/mL (≈ 0.24 µM). For the same compound, the MIC90 (Enterococcus faecalis; Enterococcus faecalis) was 1 µg/mL (≈ 2 µM), the “MIC Range” value (Enterococcus faecalis; Enterococcus faecalis clinical isolates, (14) tested) was under 0.015 to 2.00 µg/mL and the MIC50 (Bacteroides spp.; Bacteroides) was 0.25 µg/mL (≈ 0.499 µM). For the same compound, the MIC90 (Bacteroides spp.; Bacteroides) was 2 µg/mL (≈ 4 µM), the “MIC Range” value (Bacteroides spp.; Bacteroides spp. clinical isolates, (15) tested) was over 0.15 to 4.00 µg/mL and the MIC [15] was 0.03 µg/mL (≈ 0.0599 µM). The MIC [16] was 0.12 µg/mL (≈ 0.24 µM), the ED50 (S. aureus UBMS 90-1) was 0.22 mg/kg and the ED50 (S. aureus UBMS 90-2) was 0.49 mg/kg. For the same compound, the MIC50 (Proteus spp. indole+) was 2 µg/mL (≈ 4 µM), the MIC90 (Proteus spp. indole+) was over 32 µg/mL and the MIC50 (Neisseria gonorrhoeae; Neisseria gonorrhoeae) was 0.03 µg/mL (≈ 0.0599 µM). For the same compound, the MIC90 (Neisseria gonorrhoeae; Neisseria gonorrhoeae) was 1 µg/mL (≈ 2 µM), the “MIC Range” value (Neisseria gonorrhoeae; Neisseria gonorrhoeae clinical isolates, (9) tested) was 0.015 to 1.00 µg/mL and the MIC [17] was under 0.015 µg/mL. For the same compound, the MIC ([17]; Staphylococcus aureus) was 0.015 µg/mL (≈ 0.03 µM), the MIC (E. coli UBMS 88-1 (tetB)) was 32 µg/mL (≈ 63.9 µM) and the “IC50, concentration of antibiotic required to inhibit protein synthesis by 50% compared to a drug-free control” value [18] was 0.4 µg/mL. It also gave an MIC [19] of 0.12 µg/mL (≈ 0.24 µM), an MIC ([19]; Staphylococcus aureus) of 0.06 µg/mL (≈ 0.12 µM) and an MIC50 (Enterococcus faecium; Enterococcus faecium) of 0.06 µg/mL (≈ 0.12 µM). For the same compound, the MIC90 (Enterococcus faecium; Enterococcus faecium) was 2 µg/mL (≈ 4 µM), the “MIC Range” value (Enterococcus faecium; Enterococcus faecium clinical isolates, (11) tested) was under 0.015 to 2.00 µg/mL and the MIC [20] was at most 0.015 µg/mL.

Reference: patent USRE40086E1, “Method for treating bacterial infection with novel 7-substituted-9-substituted amino 6-demethyl-6-deoxytetracyclines” (Wyeth Holdings Corporation, priority 1991, dated 2008)
